Measured values published in US12365651B2, “Use of pirfenidone and derivatives for modulation of B lymphocyte activity and organ protection from acute tissue damage” (Washington University, priority 2017, dated 2025).
Where two headings read alike, the source gives them in different places.

Experiments:
[1] = Plasma pharmacokinetics after IV or PO administration; format: in vivo, SD Rat; details: Sprague-Dawley, SD Rat; for concentration at 1 h / concentration at 2 h / concentration at 4 h / concentration at 8 h / AUC0-t / AUC(0-inf) / Cmax / MRT inf / half-life / concentration at 0.25 h / concentration at 0.5 h: rat, 40 mg/kg
Description: Pirfenidone and Pegyonde-6 were administered at equimolar concentrations to rats IV or per os (PO) and serum concentrations measured at different time points to measure pharmacokinetic parameters. The drugs were solubilized in 5% Alcohol+20% PEG 300 in saline.

naïve WT hearts = experiment: Flow cytometry of naïve WT hearts after Pirfenidone for 1 week; format: in vivo, mouse; details: Pirfenidone 1 week
Source text: Accordingly, we performed FACS analysis 4 days after DT injection.
In order to administer Pirfenidone, mice were fed powdered chow mixed with Pirfenidone (eNovation Chemicals, Bridgewater, NJ, USA, Cat #D404655) at 0.5% in weight or powdered chow alone. […] Unless specifically noted, mice were switched to a diet enriched with Pirfenidone 3 days prior to DT-induced injury or I/R-injury, and maintained on this diet throughout the duration of the experiments. In parallel studies, we fed mice normal chow prior to I/R injury and then administered Pirfenidone acutely at the time of cardiac injury. For these latter studies, mice were injected i.p. with diluent (200 μL phosphate-buffered solution [PBS]) or i.p. with Pirfenidone (200 μL of Pirfenidone [5 mg/mL] in PBS) after reperfusion and the morning after I/R injury (2 injections total). They were switched to Pirfenidone-enriched diet or control diet the evening of I/R injury and maintained on the same diet until completion of the experiment.
For flow cytometry experiments, mice were euthanized in a CO2 chamber and the hearts were perfused with cold PBS, carefully dissected from extracardiac tissue under a stereo microscope, finely minced, suspended in 3 ml of DMEM, and then digested with 120 U of DNAse (Sigma), 180 U of hyaluronidase (Sigma) and 1350 U of Collagenase (Sigma) for 60 minutes at 37Co. The digested material was filtered through 40 μm filters and pelleted by centrifugation (250×g for 3 minutes at 4° C.) in HBSS supplemented with 2% FCS+0.2% bovine serum albumin (BSA). Red blood cells were lysed in ACK lysis buffer (Invitrogen) for 15′ on ice and the remaining cells were resuspended in 300 μL of FACS buffer (PBS with 2% FCS and 2 mM EDTA). Cultured cells were collected for FACS analysis as described above and resuspended in 300 μL of FACS buffer. Samples were labeled with the fluorescently conjugated antibodies outlined in the table below. Cells were stained for 45 minutes on ice, and washed in FACS buffer prior to analysis. All antibodies from Biolegend were used at 0.2 μL per 300 μL sample, while antibodies from BD biosciences were used at 0.4 μL per 300 μL sample. FACS was performed on Beckton Dickinson analyzers (LSRII, Canto, X20 or Fortessa). Compensation controls were generated using UltraComp ebeads (Invitrogen, Carlsbad, CA, USA) and verified on single color control samples obtained staining primary splenocytes. For flow cytometry experiments that involved the DT injury model, we collected serum at the time of terminal sacrifice for quantification of troponin. […] Cell sorting was performed using a FACSAria sorting instrument (Beckton Dickinson) at the Washington University Department of Pathology Flow Cytometry and Sorting Core.

[2] = plasma, iv, IV 40 mg/kg, read-out: Plasma concentrations of Pirfenidone, Mean
[3] = plasma, iv, IV 40 mg/kg, individual rats 1-3, read-out: Plasma concentrations of Pirfenidone
[4] = plasma, po, PO 40 mg/kg, individual rats 7-9, read-out: Plasma concentrations of Pirfenidone
[5] = plasma, po, PO 40 mg/kg, read-out: Plasma concentrations of Pirfenidone, Mean

Cc1ccc(=O)n(-c2ccccc2)c1 [Pirfenidone, 5 methyl-1-phenyl-2-[H] pyridone]
concentration at 1 h [1, 2]: 6940 ng/mL | concentration at 2 h [1, 2]: 444 ng/mL | concentration at 4 h [1, 3]: 4.27 ng/mL | concentration at 4 h [1, 2]: 4.7 ng/mL | concentration at 8 h [1, 3]: 1.22 ng/mL | concentration at 8 h [1, 2]: 1.22 ng/mL | AUC0-t ([1]; plasma, iv, IV 40 mg/kg, read-out: AUC0-t, Mean): 23500 ng·h/mL | AUC(0-inf) ([1]; plasma, iv, IV 40 mg/kg, read-out: AUC0-∞, Mean): 23500 ng·h/mL | Cmax ([1]; plasma, iv, IV 40 mg/kg, read-out: Cmax, Mean): 33700 ng/mL | MRT inf ([1]; plasma, iv, IV 40 mg/kg, read-out: MRTINF, Mean): 29 min | half-life ([1]; plasma, iv, IV 40 mg/kg, read-out: T1/2, Mean (converted)): 21.4 min | concentration at 0.25 h [1, 4]: 9130 ng/mL | concentration at 0.25 h [1, 5]: 9000 ng/mL | concentration at 0.5 h [1, 4]: 8450 ng/mL | concentration at 0.5 h [1, 5]: 7990 ng/mL | concentration at 1 h [1, 4]: 5110 ng/mL | concentration at 1 h [1, 5]: 4070 ng/mL | concentration at 2 h [1, 4]: 1190 ng/mL | concentration at 2 h [1, 5]: 1780 ng/mL | concentration at 4 h [1, 5]: 321 ng/mL | concentration at 8 h [1, 5]: 65.3 ng/mL | Cmax ([1]; plasma, po, PO 40 mg/kg, individual rats 7-9, read-out: Cmax): 9130 ng/mL | MRT inf ([1]; plasma, po, PO 40 mg/kg, individual rats 7-9, read-out: MRTINF): 52 min | AUC0-t ([1]; serum, iv, IV 40 mg/kg, individual rats 1-3, read-out: AUC0-t): 21400 ng·h/mL | AUC(0-inf) ([1]; serum, iv, IV 40 mg/kg, individual rats 1-3, read-out: AUC0-∞): 21400 ng·h/mL | Cmax ([1]; serum, iv, IV 40 mg/kg, individual rats 1-3, read-out: Cmax): 32900 ng/mL | MRT inf ([1]; serum, iv, IV 40 mg/kg, individual rats 1-3, read-out: MRTINF): 28.8 min | half-life ([1]; serum, iv, IV 40 mg/kg, individual rats 1-3, read-out: T1/2 (converted)): 30 min | AUC0-t ([1]; serum, po, PO 40 mg/kg, individual rats 7-9, read-out: AUC0-t): 11100 ng·h/mL | AUC(0-inf) ([1]; serum, po, PO 40 mg/kg, individual rats 7-9, read-out: AUC0-∞): 11100 ng·h/mL | AUC0-t ([1]; serum, po, PO 40 mg/kg, read-out: AUC0-t, Mean): 12000 ng·h/mL | AUC(0-inf) ([1]; serum, po, PO 40 mg/kg, read-out: AUC0-∞, Mean): 12100 ng·h/mL | Cmax ([1]; serum, po, PO 40 mg/kg, read-out: Cmax, Mean): 9000 ng/mL | MRT inf ([1]; serum, po, PO 40 mg/kg, read-out: MRTINF, Mean): 76.8 min | half-life ([1]; serum, po, PO 40 mg/kg, read-out: T1/2, Mean (converted)): 48.9 min | Tmax ([1]; serum, IV 40 mg/kg, individual rats 1-3, read-out: Tmax): 4.98 min | bioavailability ([1]; serum, PO 40 mg/kg vs IV 40 mg/kg): 22.6% | Tmax ([1]; serum, PO 40 mg/kg, read-out: Tmax, Mean): 15 min | number of CD45+ cells/mg tissue (naïve WT hearts; p=0.53): no significant effect | Ly6C+CD64 low/− monocytes (naïve WT hearts; p=0.81): no significant effect | CD64+Ly6Clow/− macrophages (naïve WT hearts; p=0.82): no significant effect | Ly6G+ neutrophils (naïve WT hearts; p=0.82): no significant effect | CD19+ B-lymphocytes (naïve WT hearts; p=0.94): no significant effect
